# In patent US12655175B2, “C17, C20, and C21 substituted neuroactive steroids and their methods of use” (Sage Therapeutics, LLC, priority 2016, dated 2026):
# Biological target: GABAA receptor
# Assay: Steroid inhibition of [35S]-TBPS binding
# Conditions: rat brain cortical membranes, 3 nM [35S]-TBPS, in the presence of 5 mM GABA
# Experimental: Steroid Inhibition of TBPS Binding
# Briefly, cortices are rapidly removed following decapitation of carbon dioxide-anesthetized Sprague-Dawley rats ([…]). The cortices are homogenized in 10 volumes of ice-cold 0.32 M sucrose using a glass/teflon homogenizer and centrifuged at 1500×g for 10 min at 4° C. The resultant supernatants are centrifuged at 10,000×g for 20 min at 4° C. to obtain the P2 pellets. The P2 pellets are resuspended in 200 mM NaCl/50 mM Na—K phosphate pH 7.4 buffer and centrifuged at 10,000×g for 10 min at 4° C. This washing procedure is repeated twice and the pellets are resuspended in 10 volumes of buffer. Aliquots ([…]) of the membrane suspensions are incubated with 3 nM [^35S]-TBPS and […] aliquots of test drug dissolved in dimethyl sulfoxide (DMSO) (final 0.5%) in the presence of 5 mM GABA. The incubation is brought to a final volume of 1.0 mL with buffer. […] Following a 90 min incubation at room temp, the assays are terminated by filtration through glass fiber filters (Schleicher and Schuell No. 32) using a cell harvester (Brandel) and rinsed three times with ice-cold buffer. Filter bound radioactivity is measured by liquid scintillation spectrometry. Non-linear curve fitting of the overall data for each drug averaged for each concentration is done using Prism (GraphPad).
# Various compounds are or can be screened to determine their potential as modulators of [^35S]-TBPS binding in vitro. These assays are or can be performed in accordance with the above discussed procedures.
row,SMILES,IC50 [nM]
1,COC[C@]12CC[C@](O)(C(F)(F)F)C[C@H]1CC[C@H]1[C@@H]3CC[C@H](C(=O)NC4CCCCC4)[C@@]3(C)CC[C@@H]12 [Compound 80],> 500
2,C[C@@H](c1ccc(C#N)cc1)N(C)C(=O)[C@H]1CC[C@H]2[C@@H]3CC[C@@H]4C[C@@](O)(C(F)(F)F)CC[C@@H]4[C@H]3CC[C@]12C [Compound 70],100 to 500
3,"CC[C@@H](NC(=O)[C@H]1CC[C@H]2[C@@H]3CC[C@@H]4C[C@](C)(O)CC[C@@H]4[C@H]3CC[C@]12C)c1ccc(F)cc1 (single isomer, unassigned) [Compound 34]",100 to 500
4,C[C@@]1(O)CC[C@H]2[C@H](CC[C@@H]3[C@@H]2CC[C@]2(C)[C@@H](C(=O)NCC4CCOCC4)CC[C@@H]32)C1 [Compound 24],> 500
5,C[C@@]1(O)CC[C@@]2(C)[C@@H](CC[C@@H]3[C@@H]2CC[C@]2(C)[C@@H](N)CC[C@@H]32)C1 [Compound 93],> 500
6,CCO[C@H]1C[C@@]2(C)[C@@H](CC[C@H]3[C@@H]4CC[C@H]([N+](=O)[O-])[C@@]4(C)CC(=O)[C@@H]32)C[C@@H]1O [Compound 123],50 to 100
7,C[C@H](c1ccccc1)N(C)C(=O)[C@H]1CC[C@H]2[C@@H]3CC[C@@H]4C[C@](C)(O)CC[C@@H]4[C@H]3CC[C@]12C [Compound 32],10 to 50
8,CO[C@H]1C[C@@]2(C)[C@@H](CC[C@@H]3[C@@H]2CC[C@]2(C)[C@@H]([N+](=O)[O-])CC[C@@H]32)C[C@@H]1O [Compound 118],10 to 50
9,C[C@@]1(O)CC[C@H]2[C@H](CC[C@@H]3[C@@H]2CC[C@]2(C)[C@@H](c4ccccn4)CC[C@@H]32)C1 [Compound 108],100 to 500
10,C[C@@]1(O)CC[C@H]2[C@H](CC[C@@H]3[C@@H]2CC[C@]2(C)[C@@H](c4cncnc4)CC[C@@H]32)C1 [Compound 104],50 to 100
11,CN(CC(=O)[C@H]1CC[C@H]2[C@@H]3CC[C@@H]4C[C@](C)(O)CC[C@@H]4[C@H]3CC[C@]12C)c1ccccc1 [Compound 39],50 to 100
12,C[C@@]1(O)CC[C@H]2[C@H](CC[C@@H]3[C@@H]2CC[C@]2(C)[C@@H](C(=O)CNc4cccc(F)c4)CC[C@@H]32)C1 [Compound 41],< 10
13,CCOC[C@]12CC[C@@](C)(O)C[C@@H]1CC[C@H]1[C@@H]3CC[C@H](C(=O)CN(C)c4ccccc4)[C@@]3(C)CC[C@@H]12 [Compound 65],100 to 500
